Laboratory results published in US11160790B2, “Method of inhibiting Cryptococcus growth using eltrombopag” (priority 2019, dated 2021).
In brackets after ≈: the same amount, converted by molar mass.

Legend:
[1] = tested on: Cryptococcus deuterogattii R265; assay: Microdilution assay (CLSI M27-A3/M38-A2), MIC and MFC; assay type: cell-based; conditions: 35° C.
Description: (§1) Cryptococcus and Candida species were cultured in yeast extract-peptone-dextrose (YPD) medium (containing 1% yeast extract, 2% peptone, 2% glucose, and optionally 2% agar for preparation of an agar plate). Aspergillus, Fusarium, and Trichophyton species were cultured on potato dextrose agar (PDA) plate (containing 2% potato infusion, […], and 1.5% agar). A microdilution assay was performed to determine minimum inhibitory concentration (MIC), minimum fungicidal concentration (MFC), and fractional inhibitory concentration (FIC) index (FICI) using RPMI 1640 medium buffered with MOPS. Minimal medium (containing 15 mM glucose, 10 mM magnesium sulfate, 29.4 mM potassium dihydrogen phosphate, 13 mM glycine, and 3 μM thiamine hydrochloride; pH 5.5) was used for capsule size assay and melanization assay.
(§2) To investigate the inhibitory effects of eltrombopag on the growth of fungi, microdilution assays (based on the CLSI standards M27-A3 and M38-A2) were performed with multiple pathogenic yeasts and filamentous fungi including Cryptococcus, Candida, Aspergillus, Fusarium, and Trichophyton (TABLE 1). Briefly, yeast or filamentous fungi strains at a final concentration of about 10^3 cfu/mL were inoculated in RPMI 1640 medium containing two-fold serially diluted eltrombopag (started at 64 mg/L). In addition, fungal cultures without eltrombopag were used as positive controls, while media without fungal cells and eltrombopag were used as negative controls. The 96-well plates loaded with the aforementioned cultures were incubated at 35° C. for 48 hours, and the growth of cells in each well was examined to determine the minimum inhibitory concentration (MIC) of eltrombopag, which was the lowest drug concentration at which there was no visible cell growth. Thereafter, 3 μL of the fungal culture from each well of the 96-well plates was spotted onto eltrombopag-free YPD (for yeasts) or PDA (for filamentous fungi) agar plates, which were then incubated at 35° C. for 48 hours to examine colony formation Minimum fungicidal concentration (MFC) was determined to be the lowest drug concentration at which no colonies formed. The assays were performed in triplicate.

[2] = tested on: Cryptococcus neoformans 89-610; assay: as above; assay type: cell-based; conditions: 35° C.
Description: as §1, §2

## CC1=NN(c2ccc(C)c(C)c2)C(=O)/C1=N\Nc1cccc(-c2cccc(C(=O)O)c2)c1O [eltrombopag]
[1]; 48 hours
  MIC: 0.125 µg/mL (≈ 0.283 µM)
[1]; 48 hours on drug-free agar
  MFC: > 64 µg/mL
[2]; Cryptococcus neoformans, 89610, 48 h, 48 hours, azole-resistant strain
  MIC: 0.125 µg/mL (≈ 0.283 µM)
[2]; Cryptococcus neoformans, 89610, 48 hours on drug-free agar
  MFC: > 64 µg/mL
